Laboratory results from patent US20230086702A1, “SUBSTITUTED 2-AMINO-PYRAZOLYL-[1,2,4]TRIAZOLO[1,5A]PYRIDINE DERIVATIVES AND USE THEREOF” (The Johns Hopkins University, priority 2019, published 2023).

What was measured:
DLK = molecular target: T1, DLK (Homo sapiens, UniProt Q12852); assay: DLK biochemical assay (TR-FRET, MKK7 phosphorylation); conditions: DLK catalytic domain, MKK7 substrate, 60 μM ATP
T1 construct: 10 nM DLK, catalytic domain, Carna Biosiences; purchased Carna Biosciences ('Carna Biosiences' [sic])
T1 sequence (Q12852 125-366 limits assumed): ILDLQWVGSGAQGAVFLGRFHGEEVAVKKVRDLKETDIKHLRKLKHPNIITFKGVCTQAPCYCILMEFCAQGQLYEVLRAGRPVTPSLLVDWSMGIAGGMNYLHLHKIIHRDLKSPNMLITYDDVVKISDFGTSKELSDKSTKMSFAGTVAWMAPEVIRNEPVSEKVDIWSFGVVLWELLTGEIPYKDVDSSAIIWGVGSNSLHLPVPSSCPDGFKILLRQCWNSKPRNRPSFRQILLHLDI
Procedure: (§1) DLK assay is a biochemical assay format designed to screen for inhibitors of DLK. Enzymatic activity of DLK is measured by monitoring phosphorylation of the physiological substrate MKK7 (MAP2K7, Dual specificity mitogen-activated protein kinase kinase 7). Phosphorylation is detected by a TR-FRET system whereby His-tagged MKK7 is labeled by a XL665-labeled anti-His antibody (FRET acceptor, emission 665 nm). DLK phosphorylates MKK7 at T275/S277, which is detected by an Eu-labeled anti-phospho-MKK7 (T275/S277) antibody (FRET donor, excitation 340 nm). Phosphorylation of MKK7 results in an increased TR-FRET signal (Ratio XL665-channel/Eu-channel) and inhibition of enzymatic activity of DLK decreases the TR-FRET signal.
All indicated concentrations are final concentrations.
(§2) Detection buffer: 25 mM Tris/HCl pH 7.5, 100 mM EDTA, 100 mM NaCl, 200 mM KF, 0.01% Tween 20, 1:500 Smart Block.

LZK = molecular target: T2, LZK (Homo sapiens, UniProt O43283); assay: LZK biochemical assay (TR-FRET, MKK7 phosphorylation); conditions: LZK catalytic domain, MKK7 substrate, 15 μM ATP
T2 construct: 10 nM LZK, catalytic domain, Carna Biosiences in assay buffer; purchased Carna Biosciences ('Carna Biosiences' [sic])
T2 sequence (O43283 168-409 limits assumed): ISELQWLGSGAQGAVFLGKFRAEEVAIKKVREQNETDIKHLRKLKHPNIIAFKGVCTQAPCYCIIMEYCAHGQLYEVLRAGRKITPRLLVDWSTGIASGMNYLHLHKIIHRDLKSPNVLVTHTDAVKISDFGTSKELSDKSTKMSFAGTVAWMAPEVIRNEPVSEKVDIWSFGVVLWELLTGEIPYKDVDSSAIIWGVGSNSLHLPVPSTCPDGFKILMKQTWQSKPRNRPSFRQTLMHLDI
Procedure: as §1, with “LZK” for “DLK”, “LZK.” for “DLK.”, “T275/S277” for “T275/S277,”
All indicated concentrations final concentrations.
as §2

With `CCC(c1ccc(OC(F)(F)F)nc1)n1cc(-c2cc(C(=O)NC(C)(C)CO)c3nc(N)nn3c2)cn1` (single isomer, unassigned) [Example I-171, 2-Amino-N-(1-hydroxy-2-methylpropan-2-yl)-6-(1-{1-[6-(trifluoromethoxy)pyridin-3-yl]propyl}-1H-pyrazol-4-yl)[1,2,4]triazolo[1,5-a]pyridine-8-carboxamide] the IC50 (DLK) was 85 nM and the IC50 (LZK) was 150 nM.

`CC[C@@H](c1ccc(F)cc1)n1cc(-c2cc(C(=O)NC(C)CF)n3nc(N)nc3c2)cn1` (single isomer, unassigned) [Example I-149, 2-Amino-7-{1-[(15)-1-(4-fluorophenyl)propyl]-1H-pyrazol-4-yl}-N-(1-fluoropropan-2-yl)[1,2,4]triazolo[1,5-a]pyridine-5-carboxamide] was tested, and the IC50 (DLK) was 1.7 nM and the IC50 (LZK) was 13 nM.

Work on `CCC(c1ccc(OCC(F)(F)F)nc1)n1cc(-c2cc(C(=O)N[C@@H](C)CC)n3nc(N)nc3c2)cn1` (single isomer, unassigned) [Example I-114] yielded an IC50 (DLK) of 49 nM and an IC50 (LZK) of 130 nM.

With `CC[C@H](C)NC(=O)c1cc(-c2cnn(C(c3ccc(C(F)(F)F)nc3)C(C)C)c2)cn2nc(N)nc12` (mixture of isomers) [Example I-73, 2-Amino-N-[(2S)-butan-2-yl]-6-(1-{2-methyl-1-[6-(trifluoromethyl)pyridin-3-yl]propyl}-1H-pyrazol-4-yl)[1,2,4]triazolo[1,5-a]pyridine-8-carboxamide] the IC50 (DLK) was 1.6 nM and the IC50 (LZK) was 5.8 nM.

`CCC(c1ccc(OCC(F)(F)F)nc1)n1cc(-c2cc(C(=O)N[C@@H](C)CC)n3nc(N)nc3c2)cn1` (mixture of isomers) [Example I-113, 2-Amino-N-[(2S)-butan-2-yl]-7-(1-{1-[6-(2,2,2-trifluoroethoxy)pyridin-3-yl]propyl}-1H-pyrazol-4-yl)[1,2,4]triazolo[1,5-a]pyridine-5-carboxamide] was tested, and the IC50 (DLK) was 5.4 nM and the IC50 (LZK) was 12 nM.

Work on `CC[C@H](C)NC(=O)c1cc(-c2cnn(C3CCc4ccccc43)c2)cn2nc(N)nc12` (single isomer, unassigned) [Example I-15] yielded an IC50 (DLK) of 31 nM and an IC50 (LZK) of 7.8 nM.

`CC[C@H](C)NC(=O)c1cc(-c2cnn(C(CC#N)C(F)(F)F)c2)cc2nc(N)nn12` (stereo partly shown) [Example I-2] was tested, and the IC50 (DLK) was 36 nM and the IC50 (LZK) was 74 nM.

For `CC[C@H](C)NC(=O)c1cc(-c2cnn(C3CCOc4ccccc43)c2)cc2nc(N)nn12` (single isomer, unassigned) [Example I-17], the IC50 (DLK) was 22 nM and the IC50 (LZK) was 4.7 nM.

With `CC[C@H](c1ccc(C(F)(F)F)nc1)n1cc(-c2cc(C(=O)N[C@@H](C)CC)c3nc(N)nn3c2)cn1` (single isomer, unassigned) [Example I-72] the IC50 (DLK) was 10 nM and the IC50 (LZK) was 16 nM.

For `CCC(c1ccnc(C(F)(F)F)c1)n1cc(-c2cc(C(=O)N[C@@H](C)CC)n3nc(N)nc3c2)cn1` (mixture of isomers) [Example I-122, 2-Amino-N-[(2S)-butan-2-yl]-7-(1-{1-[2-(trifluoromethyl)pyridin-4-yl]propyl}-1H-pyrazol-4-yl)[1,2,4]triazolo[1,5-a]pyridine-5-carboxamide], the IC50 (DLK) was 3.5 nM and the IC50 (LZK) was 7.4 nM.

In the case of `CCC(c1ccc(C(F)(F)F)nc1)n1cc(-c2cc(C(=O)NC(C)(C)CO)c3nc(N)nn3c2)cn1` (racemic) [Example I-163, 2-Amino-N-(1-hydroxy-2-methylpropan-2-yl)-6-(1-{1-[6-(trifluoromethyl)pyridin-3-yl]propyl}-1H-pyrazol-4-yl)[1,2,4]triazolo[1,5-a]pyridine-8-carboxamide], the IC50 (DLK) is reported as 7.6 nM and the IC50 (LZK) is reported as 30 nM.

`CC[C@H](C)NC(=O)c1cc(-c2cnn(C(c3ccc(F)cc3)C(C)C)c2)cn2nc(N)nc12` (single isomer, unassigned) [Example I-44] was tested, and the IC50 (DLK) was 33 nM and the IC50 (LZK) was 160 nM.

Work on `CC[C@H](C)NC(=O)c1cc(-c2cnn(C(c3ccc(C(F)(F)F)nc3)C3CCNCC3)c2)cn2nc(N)nc12` (single isomer, unassigned) [Example I-82] yielded an IC50 (DLK) of 0.9 nM and an IC50 (LZK) of 0.5 nM.

`CC(C)C(c1ccc(C(F)(F)F)nc1)n1cc(-c2cc(C(=O)N[C@H]3CCOC3)n3nc(N)nc3c2)cn1` (single isomer, unassigned) [Example I-181] was tested, and the IC50 (DLK) was 2.1 nM and the IC50 (LZK) was 14 nM.

`CCC(c1ccc(F)cn1)n1cc(-c2cc(C(=O)N[C@@H](C)CC)c3nc(N)nn3c2)cn1` (mixture of isomers) [Example I-55, 2-Amino-N-[(2S)-butan-2-yl]-6-{1-[1-(5-fluoropyridin-2-yl)propyl]-1H-pyrazol-4-yl}[1,2,4]triazolo[1,5-a]pyridine-8-carboxamide] gave an IC50 (DLK) of 6.7 nM and an IC50 (LZK) of 49 nM.

`CC[C@H](C)NC(=O)c1cc(-c2cnn(C(c3ccccc3)C3(C)CC3)c2)cn2nc(N)nc12` (single isomer, unassigned) [Example I-30] was tested, and the IC50 (DLK) was 140 nM and the IC50 (LZK) was 310 nM.

`CC[C@H](C)NC(=O)c1cc(-c2cnn(C3CN(C)C3)c2)cn2nc(N)nc12` [Example I-4] showed an IC50 (DLK) of 84 nM and an IC50 (LZK) of 26 nM.

`CC(C)C(c1ccc(C(F)(F)F)nc1)n1cc(-c2cc(C(=O)N[C@H]3CCOC3)n3nc(N)nc3c2)cn1` (mixture of isomers) [Example I-180, 2-Amino-7-(1-{2-methyl-1-[6-(trifluoromethyl)pyridin-3-yl]propyl}-1H-pyrazol-4-yl)-N-[(3S)-tetrahydrofuran-3-yl][1,2,4]triazolo[1,5-a]pyridine-5-carboxamide] gave an IC50 (DLK) of 1.6 nM and an IC50 (LZK) of 6.1 nM.

With `CC[C@H](C)NC(=O)c1cc(-c2cnn(C(c3ccc(C(F)F)nc3)C3CC3)c2)cc2nc(N)nn12` (single isomer, unassigned) [Example I-99] the IC50 (DLK) was 31 nM and the IC50 (LZK) was 14 nM.

`Nc1nc2c(C(=O)NC3CNC(=O)C3)cc(-c3cnn(Cc4ccc(F)cc4)c3)cn2n1` (racemic) [Example I-136, 2-Amino-6-[1-(4-fluorobenzyl)-1H-pyrazol-4-yl]-N-(5-oxopyrrolidin-3-yl)[1,2,4]triazolo[1,5-a]pyridine-8-carboxamide] was tested, and the IC50 (DLK) was 23 nM and the IC50 (LZK) was 210 nM.

In the case of `CC(C)C(c1cncc(Cl)c1)n1cc(-c2cc(C(=O)NC(C)(C)CO)c3nc(N)nn3c2)cn1` (single isomer, unassigned) [Example I-173, 2-Amino-6-{1-[1-(5-chloropyridin-3-yl)-2-methylpropyl]-1H-pyrazol-4-yl}-N-(1-hydroxy-2-methylpropan-2-yl)[1,2,4]triazolo[1,5-a]pyridine-8-carboxamide], the IC50 (DLK) is reported as 2 nM and the IC50 (LZK) is reported as 49 nM.

`CC[C@H](C)NC(=O)c1cc(-c2cnn(C(c3ccccc3)C3CC(F)(F)C3)c2)cn2nc(N)nc12` (single isomer, unassigned) [Example I-32] gave an IC50 (DLK) of 56 nM and an IC50 (LZK) of 180 nM.

In the case of `CC[C@H](C)NC(=O)c1cc(-c2cnn(C(c3ccc(OCC(F)(F)F)nc3)C(C)C)c2)cc2nc(N)nn12` (mixture of isomers) [Example I-116, 2-Amino-N-[(2S)-butan-2-yl]-7-(1-{2-methyl-1-[6-(2,2,2-trifluoroethoxy)pyridin-3-yl]propyl}-1H-pyrazol-4-yl)[1,2,4]triazolo[1,5-a]pyridine-5-carboxamide], the IC50 (DLK) is reported as 8.2 nM and the IC50 (LZK) is reported as 68 nM.

Molecule `CC[C@H](C)NC(=O)c1cc(-c2cnn(C(c3ccc(C(F)F)nc3)C(C)C)c2)cn2nc(N)nc12` (single isomer, unassigned) [Example I-69] has an IC50 (DLK) of 1 nM and an IC50 (LZK) of 3.9 nM.

With `CCC(c1cncc(Cl)c1)n1cc(-c2cc(C(=O)N[C@@H](C)CC)c3nc(N)nn3c2)cn1` (mixture of isomers) [Example I-58, 2-Amino-N-[(2S)-butan-2-yl]-6-{1-[1-(5-chloropyridin-3-yl)propyl]-1H-pyrazol-4-yl}[1,2,4]triazolo[1,5-a]pyridine-8-carboxamide] the IC50 (DLK) was 1.6 nM and the IC50 (LZK) was 16 nM.

`CC[C@H](C)NC(=O)c1cc(-c2cnn(C3CCC(F)(F)CC3)c2)cn2nc(N)nc12` [Example I-3] showed an IC50 (DLK) of 66 nM and an IC50 (LZK) of 12 nM.
